Results published in patent US20110039783A1, “PEPTIDE HAVING HYPOTENSIVE ACTIVITY” (DAIICHI SANKYO COMPANY LIMITED, priority 2007, published 2011).
Entries after “also recorded” stand apart in the source; their conditions may differ.

Columns and labels:
[1] = test system: blood pressure of anesthetized Sprague-Dawley IGS male rats; experiment: Hypotensive activity in anesthetized rats, invasive blood pressure measurement after intravenous administration; format: in vivo, rat; details: for Hypotensive activity (dose/rat) 10 nmol / Hypotensive activity (dose/rat) 30 nmol: intravenous; for Hypotensive activity (dose/rat) 10 nmol: 10 nmol/rat; for Hypotensive activity (dose/rat) 30 nmol: 30 nmol/rat
[2] = test system: blood pressure of awake Sprague-Dawley IGS male rats; experiment: Hypotensive activity on awake rats; format: in vivo, rat; design: key to Hypotensive activity (dose/rat) 10 nmol / Hypotensive activity (dose/rat) 30 nmol: Extremely strong activity (+++): A decrease in systolic blood pressure is 30 mmHg or more, and the time required for recovery is 5 minutes or more.; Strong activity (++): A decrease in systolic blood pressure is 20 mmHg or more and less than 30 mmHg, or the time required for recovery is less than 5 minutes.; Activity observed (+): A decrease in systolic blood pressure is less than 20 mmHg.; Activity not observed (−)
Description: 50 mg/kg pentobarbital sodium was intraperitoneally administered to 8- to 10-week-old Sprague-Dawley IGS male rats (Charles River Laboratories Japan, Inc.) for anesthesia. Thereafter, a jugular vein cannula (Silascon 0.5-1.0) was inserted into each rat for use in peptide administration, and a carotid artery cannula (PE50) was inserted into each rat for use in the measurement of blood pressure. At least 3 hours after the surgery, it was confirmed that the rats were awoken from the anesthesia based on general conditions such as the posture, respiration, and the like of the rats. Thereafter, the rats were subjected to the experiment.
The carotid artery cannula was connected with a pressure transducer (PE23XL; manufactured by Nihon Kohden Corporation), and an apparatus formed by incorporating a blood pressure measurement unit (AP-641G; manufactured by Nihon Kohden Corporation) and an instantaneous heart rate measurement unit (AT-601G; manufactured by Nihon Kohden Corporation) into a multi-purpose preamplifier (RP-6004; manufactured by Nihon Kohden Corporation) was used to record the blood pressure and heart rate of each rat. The blood pressure was calibrated using a mercury manometer included in a stand-type electromanometer (MP-25S; manufactured by Nihon Kohden Corporation). The recording paper was adjusted, such that 20 mm or 40 mm on the recording paper corresponded to 100 mmHg. A solvent in which each peptide had been dissolved was used as a negative control in blood pressure fluctuation.
Each peptide was dissolved in a concentration of 1 mM in a 5% mannitol solution to prepare a peptide solution. Thereafter, depending on dose, it was diluted with a 5% mannitol solution. In the case of the dose of 10 nmol/rat, a 1 mM peptide solution was 30 times diluted, and 300 μL of the diluted solution was administered. In the case of the dose of 30 nmol/rat, a 1 mM peptide solution was 10 times diluted, and 300 μl of the diluted solution was administered. In the case of the dose of 100 nmol/rat, a 1 mM peptide solution was 3 times diluted, and 300 μL of the diluted solution was administered. Each peptide was intravenously administered via the jugular vein cannula, and the systolic blood pressure, diastolic blood pressure, and heart rate were then measured.
The definition of the strength of hypotensive activity was the same as that of Example 3.

[3] = test system: blood pressure of awake C57BL/6 mice; experiment: Hypotensive activity on awake mice (tail cuff, systolic blood pressure); format: in vivo, mouse; details: caudal vein, 0.1 and 1 mg/kg, FIG. 2, listed as HC021-007
Description: A C57BL/6 mice with a body weight of 30 to 40 g (Charles River Laboratories Japan, Inc.) were each placed in a retaining appliance of a non-preheating, non-invasive blood pressure monitor for mice and rats (MODEL MK-2000; Muromachi Kikai Co., Ltd.), and a cuff-pulse sensor was then attached to the root of the tail. After confirming that the blood pressure of each mouse had been stable, the mouse was subjected to the experiment.
A peptide solution was prepared by diluting each peptide with a normal saline, depending on the dose. In the case of the dose of 0.1 mg/kg, a 0.02 mg/mL peptide solution was prepared. In the case of the dose of 1 mg/kg, a 0.2 mg/mL peptide solution was prepared. The amount of the solution to be administered was set at 5 mL/kg. As a positive control, a human atrial natriuretic peptide (hANP) was used. As a negative control, a normal saline was used. Each peptide was administered via the caudal vein using a syringe with a 29G needle. Three and ten minutes after the administration, the systolic blood pressure and the heart rate were measured.

## ATVRNEDKWKPLNNPRNRDLFFRRLQAYFK-amide (C-terminal amide) [Compound 5]
[1]; Table 1, anesthetized rats
  Hypotensive activity (dose/rat) 10 nmol: ++ (Strong activity (++): A decrease in systolic blood pressure is 20 mmHg or more and less than 30 mmHg, or the time required for recovery is less than 5 minutes.)
  Hypotensive activity (dose/rat) 30 nmol: +++ (Extremely strong activity (+++): A decrease in systolic blood pressure is 30 mmHg or more, and the time required for recovery is 5 minutes or more.)
[1]; Table 2, anesthetized rats
  Hypotensive activity (dose/rat) 10 nmol: ++ (Strong activity (++): A decrease in systolic blood pressure is 20 mmHg or more and less than 30 mmHg, or the time required for recovery is less than 5 minutes.)
  Hypotensive activity (dose/rat) 30 nmol: +++ (Extremely strong activity (+++): A decrease in systolic blood pressure is 30 mmHg or more, and the time required for recovery is 5 minutes or more.)
[1]; Table 3, anesthetized rats
  Hypotensive activity (dose/rat) 10 nmol: ++ (Strong activity (++): A decrease in systolic blood pressure is 20 mmHg or more and less than 30 mmHg, or the time required for recovery is less than 5 minutes.)
  Hypotensive activity (dose/rat) 30 nmol: +++ (Extremely strong activity (+++): A decrease in systolic blood pressure is 30 mmHg or more, and the time required for recovery is 5 minutes or more.)
[1]; anesthetized rats, 10, 30, 100 nmol/rat
  dose dependence of hypotensive activity: enhanced their hypotensive activity in a dose-dependent manner
[1]; anesthetized rats, Table 1 and FIG. 1, 10 or 30 nmol/rat, listed as HC021-007
  hypotensive activity (in words): observed to have a hypotensive activity; also recorded: act to lower the blood pressure of rats
[2]
  hypotensive activity (in words): observed to have a hypotensive activity even on the awake rats
[2]; Table 4, intravenous, 10 nmol/rat
  Hypotensive activity (dose/rat) 10 nmol: −
[2]; Table 4, intravenous, 30 nmol/rat
  Hypotensive activity (dose/rat) 30 nmol: ++ (Strong activity (++): A decrease in systolic blood pressure is 20 mmHg or more and less than 30 mmHg, or the time required for recovery is less than 5 minutes.)
[2]; Table 4, intravenous, 100 nmol/rat
  Hypotensive activity (dose/rat) 100 nmol: +++ (Extremely strong activity (+++): A decrease in systolic blood pressure is 30 mmHg or more, and the time required for recovery is 5 minutes or more.)
[3]
  hypotensive activity (in words), change in systolic blood pressure: exhibited a hypotensive activity even on the awake mice; also recorded: lower the blood pressure of awake mice
